{"source": "patent US7968607B2", "about": "“Skin pore minimizers and skin elasticity improvers” (Koa Corporation, priority 2000, dated 2011)", "key": {"[1]": {"system": "human skin fibroblasts (derived from a human fore skin)", "test": "Collagen gel tightening promoting ability (fibroblast-embedded collagen gel, dermis model)", "format": "cell-based", "details": "Homo sapiens, Skin fibroblast, 48 hours, relative volume, control = 100%", "experimental": "Measurement was conducted on the ability to promote the tightening of a fibroblast-embedded collagen gel as a dermis model. The collagen gel was prepared following the procedure reported in a publication [J. Cell Science, 102, 315 (1992) or J. Invest. Dermatol., 93, 792 (1989)]. Described specifically, a solution of HEPES (250 mM) in a 0.05 N sodium hydroxide solution, a 5-fold concentrate of DMEM (“GIBCO DMEM”, low glucose), FCS (2%, Fetal Calf Serum) and purified water were added under ice cooling to a collagen gel solution (product of Nitta Gelatin Inc., “type 1-A” (3.0 mg/mL, pH=3)), and finally, a suspension of human skin fibroblasts (derived from a human fore skin) was added. After the resulting mixture was thoroughly stirred to eliminate bubbles, 600 μL per well was added to 24-well dishes, followed by immediate warming at 37° C. in an incubator to effect gelation. Three to four hours later, 1 mL of serum-free DMEM medium was added to each of the wells, and the gels were separated at peripheries thereof from the corresponding dishes and were brought into a floating state. Eighteen hours after that, the medium was replaced with serum-free DMEM media which contained 100 to 10 μM of test substances, respectively, and incubation was conducted further for 48 hours.\nVolume measurement of the gels was conducted by a weight measuring method similar to that reported in the publication [J. Cell Science, 102, 315 (1992)]. Described specifically, subsequent to immobilization with 10% formalin (4° C., 24 hours), the surface tension of water was reduced by the addition of Triton X100 (product of Wako Pure Chemical Industries) (1%), and the weights were measured.\nMeasurement results of relative volumes for the respective compounds as calculated supposing that the volume of the control was 100% are presented in Table 3."}, "[2]": {"system": "human skin fibroblasts (derived from a human fore skin)", "test": "Collagen gel tightening promoting ability (fibroblast-embedded collagen gel, dermis model)", "format": "cell-based", "details": "48 hours, relative volume, control = 100%"}, "[3]": {"system": "dorsal skin of HR rats (WBN/ILA-HT)", "test": "Rat skin elasticity improving (tightening) effect, cutometer", "format": "in vivo", "details": "for Ur/Uf / Ue (instantaneous elastic displacement) / Uf (final displacement) / Ur (instantaneous recovery displacement): 2% solution in 10% ethanol, two weeks; for Ur/Uf: cutometer; for Ue (instantaneous elastic displacement) / Uf (final displacement) / Ur (instantaneous recovery displacement): cutometer 100 hpa, 5 s suction, 2 s release; for skin elasticity / skin tightening effect: when applied, from Table 4 and Table 5", "experimental": "Onto the entire dorsal skins of HR rats (WBN/ILA-HT, 7 weeks old), 2% solutions of Compounds 1 and 4 (solvent: 10% ethanol) were applied in the form of spray, respectively, once or twice a day, 7 to 8 times a week in total, in an amount of 0.7 mL each time. As a control, 10% ethanol solution was used. Two weeks later, the skin elasticity of the skin at a central dorsal part at a site slightly rightward of the median line of each HR rat was measured under Nembutal anesthesia by using a cutometer (“CUTOMETER SEM474”, Courage+Khazaka Electronic GmbH). The measurement was conducted by setting the suction pressure, suction time and release time at 100 hpa, 5 seconds and 2 seconds, and an instantaneous elastic displacement Ue, an instantaneous recovery displacement Ur and a final displacement Uf were recorded. Based on changes in the skin elasticity, skin tightening effect was determined. Ue is an index of elasticity, while Uf is an index of softness and malleability. Both of these values decrease on the face or the like upon aging, and also decrease when the skin is in a swollen state. Increases in these values, therefore, can be taken as an indication of a state that the skin is in a tightened state with its softness, melleability and elasticity having been increased further. Ur is also an index of elasticity, and decreases when the skin is in a saggy state or a swollen state. Similarly, an increase in this value serves as an indication of a state that the skin is in a tightened state with its elasticity and tightness having been increased further. Further, Ur/Uf is also an index of the elasticity of the skin, and like Ur, decreases when the skin becomes saggy or is swollen. Moreover, Ur/Uf is known to decrease upon aging irrespective of the face or body site, and is an important index of sagginess."}, "[4]": {"system": "dorsal skin of HR rats (WBN/ILA-HT)", "test": "Rat skin elasticity improving (tightening) effect, cutometer", "format": "in vivo", "details": "2% solution in 10% ethanol sprayed on dorsal skin, 0.7 mL, 7 to 8 times a week, two weeks"}}, "note": "Structures can show the parent of a compound that is named as a salt.", "data": [{"smiles": "CC(C)CCCCCCCCCCCCCCCOCC(O)COS(=O)(=O)O", "note": "(stereo not shown) [Compound 3, 1-isostearylglycerol-3-sulfate sodium salt]", "values": [{"measurement": "activity at 10 µM", "setting": "[1]", "result": 74, "unit": "%"}, {"measurement": "activity at 30 µM", "setting": "[1]", "result": 95, "unit": "%"}, {"measurement": "activity at 3 µM", "setting": "[2]", "result": 86, "unit": "%"}]}, {"smiles": "CCCCCCCCCCOCC(O)COP(=O)([O-])[O-].[Na+].[Na+]", "note": "(stereo not shown) [Compound 4, 1-decylglycerol-3-phosphate disodium salt]", "values": [{"measurement": "Ur/Uf", "setting": "[3]", "result": 0.401}, {"measurement": "Ue (instantaneous elastic displacement)", "setting": "[3]", "result": 0.225}, {"measurement": "Uf (final displacement)", "setting": "[3]", "result": 0.275}, {"measurement": "Ur (instantaneous recovery displacement)", "setting": "[3]", "result": 0.109}, {"measurement": "skin elasticity / skin tightening effect", "setting": "[3]", "result": "increased the skin elasticity and exhibited skin tightening effect"}, {"measurement": "activity at 15 µM", "setting": "[1]; 15 μM, read-out: Average gel volume", "result": 96, "unit": "%"}, {"measurement": "activity at 50 µM", "setting": "[1]; 50 μM, read-out: Average gel volume", "result": 88, "unit": "%"}, {"measurement": "Skin thickness (mm)", "setting": "[4]", "result": 0.725, "unit": "mm"}]}, {"smiles": "CCCCCCCCCCCCOCC(O)COS(=O)(=O)[O-].[Na+]", "note": "(stereo not shown) [Compound 1, 1-dodecylglycerol-3-sulfate sodium salt]", "values": [{"measurement": "Ur/Uf", "setting": "[3]", "result": 0.540}, {"measurement": "Ue (instantaneous elastic displacement)", "setting": "[3]", "result": 0.113}, {"measurement": "Uf (final displacement)", "setting": "[3]", "result": 0.159}, {"measurement": "Ur (instantaneous recovery displacement)", "setting": "[3]", "result": 0.834}, {"measurement": "skin elasticity / skin tightening effect", "setting": "[3]", "result": "increased the skin elasticity and exhibited skin tightening effect"}, {"measurement": "activity at 10 µM", "setting": "[1]", "result": 93, "unit": "%"}, {"measurement": "activity at 30 µM", "setting": "[1]", "result": 85, "unit": "%"}, {"measurement": "Skin thickness (mm)", "setting": "[4]", "result": 0.820, "unit": "mm"}]}]}
